In paper PMC8583042, “New Hybrid Compounds Combining Fragments of Usnic Acid and Thioether Are Inhibitors of Human Enzymes TDP1, TDP2 and PARP1” (International Journal of Molecular Sciences, 2021):

How the values were obtained:
[1] = Colorimetric cytotoxicity test, HEK293FT; type: cell-based; details: human, HEK293FT cells, intrinsic cytotoxicity
Source text: The low intrinsic cytotoxicity of the additional drug component in the clinically used anticancer cocktails with traditional drugs is very important for treatment. This approach in chemotherapy can reduce the potential resulting toxic load on the body in the case of a combined action of these inhibitors on the activity of several targets. […] The effects of the tested compounds on cell survival are shown on Figure 4 and the CC50 values for three cell lines are shown in Table 1. The intrinsic cytotoxicity of a number of the studied compounds is quite high, namely, they have close IC50 values against the TDP1 and CC50 values on one or several studied cell lines. Most of the compounds generally were more toxic for the HEK293FT and HeLa cell lines than for the HEK293A cell line (Table 1 and Figure 4). The cytotoxicity of the three leader compounds, 7g, 10a, and 7h, was quite high. […] Compound 10b was one of the least toxic among the ten tested compounds.
Cytotoxicity of the compounds was examined against human cell lines HEK293A (human embryonic kidney)—WT, TDP1 deficient (Tdp1-/-), PARP1 deficient (PARP1-/-), and HeLa (cervical cancer) using an EZ4U colorimetric test (Biomedica, Vienna, Austria). The HEK293A cell line was obtained from Thermo Fisher Scientific (Waltham, MA, USA), and the HeLa cell line was obtained from the Russian Cell Culture Collection (RCCC) Institute of Cytology RAS, St. Petersburg, Russia. The cells were grown in DMEM/F12 medium (Gibco, Thermo Fisher Scientific, Waltham, MA, USA), with 1x GlutaMAX (Gibco, Thermo Fisher Scientific, Waltham, MA, USA), 50 IU/mL penicillin, 50 μg/mL streptomycin (MP Biomedicals), and in the presence of 10% fetal bovine serum (Biolot, Saint-Petersburg, Russia) in a 5% CO2 atmosphere. Cells were grown in the presence of 1% DMSO in the control wells. After the formation of a 30–50% monolayer, the tested compounds were added to the medium, and the cell culture was monitored for 3 days. The values were normalized to their own control in each case. At least three independent experiments were carried out. The 50% cytotoxic concentration (CC50) was defined as the compound concentration that reduced the cell viability by 50% when compared to the untreated controls. The compound concentration that caused 50% cell growth inhibition was determined using OriginPro 8.6.0 software (OriginLab, Northampton, MA, USA). The measurements were carried out in three independent experiments.

[2] = Colorimetric cytotoxicity test, HEK293A PARP1-/-; type: cell-based; details: human, PARP1-/- HEK293A cells; PARP1-/- cell line, intrinsic cytotoxicity (Figure 6); read-out: CC50
Source text: (§1) In our previous works, we checked the cytotoxic effect of Tpc and the TDP1 inhibitors—monoterpene 3-carene-derived compounds [48, 49] and UA combined with monoterpenoids, measured separately and jointly with Tpc—using a panel of HEK293FT and HEK293A Tdp1 knockout isogenic clones. […] The data on the HEK293FT mutants were of low reproducibility, which is why we decided to change the basic cell line to HEK293A [49]. In this work, we created new PARP1-/- HEK293A cells using the CRISPR–Cas9 approach (Figure S27). […] We checked the intrinsic cytotoxicity of the leader compound (10a) on the HEK293 wild type and TDP1-/- and PARP1-/- cell lines using a colorimetric test (Figure 6). […] There was no difference between the WT and mutant cells.
(§2) Cytotoxicity of the compounds was examined against human cell lines HEK293A (human embryonic kidney)—WT, TDP1 deficient (Tdp1-/-), PARP1 deficient (PARP1-/-), and HeLa (cervical cancer) using an EZ4U colorimetric test (Biomedica, Vienna, Austria). […] After the formation of a 30–50% monolayer, the tested compounds were added to the medium, and the cell culture was monitored for 3 days. […] The compound concentration that caused 50% cell growth inhibition was determined using OriginPro 8.6.0 software (OriginLab, Northampton, MA, USA). […]

[3] = system: HEK293 wild type and TDP1-/- and PARP1-/- cell lines; assay: Joint action of 10a and Tpc on HEK293 wild type, TDP1-/- and PARP1-/- cells; type: cell-based, human; details: data not shown
Source text: as §1, §2

CC(=O)C1=C(O)C=C2Oc3c(C(=O)C[S+]([O-])c4nc5ccccc5s4)c(O)c(C)c(O)c3[C@@]2(C)C1=O (stereo partly drawn) [10a, (2R)-4-acetyl-10-[2-(1,3-benzothiazole-2-sulfinyl)acetyl]-5,11,13-trihydroxy-2,12-dimethyl-8-oxatricyclo[7.4.0.0^2,7]trideca-1(13),4,6,9,11-pentaen-3-one]
CC50 at 3 days [1]: 15 ± 2 µM | CC50 at 3 days [2]: 15 to 20 µM | Effect of the joint presence of 10a and Tpc (in words) [3]: did not observe any effect
